Test results published in article PMC13108699, “Mass balance and metabolite profiling of ^14C-Zalunfiban in humans following single-dose subcutaneous administration” (Xenobiotica; the fate of foreign compounds in biological …, 2025).
Values joined by “and” are separate entries in the source; they are usually repeats but may differ in a detail not shown here. Identical values can stand only once.

Tests used:
[1] = Metabolite profiling of pooled whole blood, urine and faeces by LC radiochromatograms with AMS; format: in vivo, human
Procedure: For metabolite profiling in whole blood, urine, and faeces, LC-MS/MS followed by AMS was used. The HPLC system included a 1290 Infinity Sampler, Binary Pump, and thermostat (Agilent, UK). The chromatographic method used an aqueous formic acid (MPA)/ammonium acetate:acetonitrile:methanol (MPB) gradient and a Scherzo SS-C18 HPLC column at a temperature of 40 °C with injection volumes of 50–200 microliters. The gradient was set at 90% MAP and 10% MPB. The mass spectrometer was a Q-Exactive system (Thermo Fisher Scientific, UK) and the AMS a single stage NEC SSAMS-250.
Single whole blood, faeces, and urine pools were created across subjects and radioactive regions representing 10% or more of the circulating radioactivity were analysed (e.g. 10% or more of the circulating radioactivity in whole blood or accounting for 10% or more of the administered radioactivity/dose in urine and faeces), To create the pool, an individual subject AUC pool was prepared, and a constant proportion of each subject pool was taken to create one cross-subject pool. The whole blood sample pool included samples from hours 0–144, the urine sample pool included samples from hours 0–48, and the faeces pool from hours 0–192.
Whole blood, faeces, and urine radiochromatograms were generated for each sample by collecting HPLC fractions at intervals of 2 (30 s) or 4 (15 s) per minute over the run time of 110 min.
Radiochromatograms were generated from AMS data using the LAURA V6 software (LabLogic, Sheffield, UK). Regions of interest were quantified and provisionally identified where possible by assignment of observed peaks in each radiochromatogram to either parent zalunfiban or M1 by retention time matching, with corresponding ^12C-reference standards obtained via LC-UV.
Assignment of parent and metabolites was made by matching retention times with synthesised standards at wavelengths of 210, 230, 254, 270, and 300 nm, using liquid chromatography ultraviolet chromatography (LC-UV).
For extraction of ^14C-zalunfiban from whole blood, weighed aliquots in microcentrifuge tubes were processed with vortex mixing and centrifugation. The supernatant was then harvested and the process repeated with the bullet material in the original tube using acetonitrile and then methanol. The combined aliquots then underwent AMS analysis to determine the extraction recovery. Once optimised, the final combined supernatant was dried under N2 gas at 40 °C and reconstituted with 1 mL methanol:water (20:80, v/v), with vortex mixing and sonication. This was followed by analysis by LC. The radioactivity extraction recovery for whole blood (AUC0–144h) was 54.5%,
For extraction of ^14C-zalunfiban from homogenised faeces, weighed aliquots in microcentrifuge tubes were processed with vortex mixing and centrifugation, and then diluted with acetonitrile, followed by additional mixing, centrifugation, and repeat extraction with methanol:water until optimised. Once optimised, the final combined supernatant was dried under N2 gas at 40 °C and reconstituted with methanol, followed by water, followed by vortex mixing, followed by analysis by LC. The radioactivity extraction recovery for faeces (0–192 h) was 100%.
Urine was not subjected to extraction. An aliquot was dispensed into an LC vial prior to analysis.

[2] = tested on: platelet aggregation; experiment: In vitro inhibition of ADP-induced platelet aggregation in platelet-rich plasma; format: cell-based, human
Procedure: Ten mL of whole blood was collected from healthy human donors via venipuncture and treated with an anticoagulant (D-phenylalanyl-prolyl-arginyl chloromethyl ketone). From this, platelet-rich plasma (PRP) was prepared by centrifuging whole blood at room temperature at 650 × g for 4 min. PRP was removed and standardised to a uniform platelet concentration of 3.0 × 10^5/μL, using platelet poor plasma as a diluent, where necessary. […] Platelet aggregation was measured using an aggregometer (PAP-8E C/N 106075; Bio/Data Corp, Horsham PA). For M1 a range of concentrations was tested to produce a single fitted curve, and the Levenberg-Marquardt approach was used to calculate IC50 values.

[3] = Water solubility; format: physicochemical
[4] = Lipophilicity; format: physicochemical

Nc1cncc(-c2nn3c(=O)cc(N4CCNCC4)nc3s2)c1 [M1, des-gly-zalunfiban]
Percentage of dose excreted in urine ([1]; 0–48 h): 52.98% and 53.0% | Percentage of total radioactivity in urine ([1]; 0–48 h cross-participant pooled sample): 64.1% | Percentage of dose excreted in faeces ([1]; 0–192 h): 2.87% | Percentage of total radioactivity in faeces ([1]; 0–192 h pooled sample): 20.8% | Percentage of total circulating radioactivity in whole blood ([1]; AUC0–144 cross-pooled whole blood extract): 24.4% | Radiochromatogram peak, faeces extract ([1]; male, human, in vivo): 20.83 %ROI | IC50 ([2]; Homo sapiens, Platelet, 20 min, PRP, 20 min at 22°C, ADP-initiated aggregation): 25.5 ± 3.5 µM | Antiplatelet activity relative to zalunfiban ([2]; from IC50 values): < 1% | solubility [3]: < 0.01 µg/mL | Lipophilicity compared with zalunfiban [4]: more lipophilic than zalunfiban
